Source: patent US20120258971A1, “THERAPEUTIC AGENT FOR CHRONIC PAIN” (OTSUKA PHARMACEUTICAL CO., LTD., priority 2009, published 2012)
Where a name gives a salt, the structure may show the parent alone.

Test system: chronic occipital-cervical pain
Assay: Pain intensity (numerical rating scale, NRS) in a chronic pain patient during drug treatment
Format: in vivo, human
Conditions: for Effect on pain of the chronic pain patient (in words): single chronic pain patient, oral administration, overall conclusion
Description: Morphine, fluvoxamine, aripiprazole, and other drugs were administered for about 11 months to a patient who was diagnosed as a chronic pain sufferer with chronic occipital-cervical pain that had continued for ten years or more. The intensity of the pain in the patients' occipital-cervical region (neck) was evaluated over time.
The intensity of pain was evaluated using a numerical rating scale (NRS) in which pain was orally reported on an 11-step scale (0 to 10). This evaluation method numerically expresses (quantifies) the degree of pain on a scale of 0 (no pain) to 10 (worst conceivable pain). This method provides a good reflection of the degree of pain of a patient before and after treatment.
From the 4th week of the first month, in addition to morphine, oral administration of fluvoxamine (Depromel tablets; produced by Meiji Seika Pharma Co., Ltd.) in a dose of 50 mg/day was started.
Then, from the 4th week of the 4th month, aripiprazole (Abilify tablets; produced by Otsuka Pharmaceutical Co., Ltd.) was orally administered in a dose of 3 mg/day. […] Furthermore, even when the administration of morphine was stopped from the 8th month, the NRS value remained at 0.
Thereafter, when the dose of aripiprazole (Abilify tablets; produced by Otsuka Pharmaceutical Co., Ltd.) was increased to 9 mg/day after the 4th week of the 9th month, and further increased to 12 mg/day after the 4th week of the 10th month, the NRS value was 0, and no change was observed.

Row | SMILES | Effect on pain of the chronic pain patient (in words) | NRS value (aripiprazole 3 mg/day oral from 4th week of 4th month, first week of the 5th month) | NRS value (aripiprazole 3 mg/day oral, from the second week of the 6th month) | NRS value (aripiprazole increased to 9 mg/day (after 4th week of 9th month) and 12 mg/day (after 4th week of 10th month)) | NRS value (aripiprazole, after morphine was stopped from the 8th month)
1 | CN1CC[C@]23c4c5ccc(O)c4O[C@H]2[C@@H](O)C=C[C@H]3[C@H]1C5 [morphine hydrochloride tablets] | the pain was not relieved |  |  |  | 
2 | COCCCC/C(=N\OCCN)c1ccc(C(F)(F)F)cc1 [fluvoxamine] | the pain was not relieved at all |  |  |  | 
3 | O=C1CCc2ccc(OCCCCN3CCN(c4cccc(Cl)c4Cl)CC3)cc2N1 [aripiprazole, 7-{4-[4-(2,3-dichlorophenyl)-1-piperazinyl]butoxy}-3,4-dihydrocarbostyril] | could dramatically reduce the pain | 1 | 0 | 0 | 0
